Measured values as given in patent US7208167B2, “Treatment of hepatitis C with thymosin and peptide combination therapy” (SciClone Pharmaceuticals, Inc., priority 2000, dated 2007).
Marks after values point to notes of the source that are not given here. Ends that are not written are not given here.

Legend:
[1] = tested on: HCV genotype 1; assay: 12-week dose ranging study of thymalfasin plus PEG-IFN2a in chronic hepatitis C non-responders: serum HCV RNA, EVR; type: in vivo, patients; conditions: for Median Reduction HCV RNA (log): week 12
Procedure: The effects of 3 different doses of thymalfasin (TA1) in combination with PEG-IFN2a on week 12 HCV RNA levels and T cell counts was investigated.
(§1) Patients with chronic hepatitis C who were non-responders to previous antiviral therapy were randomized to receive PEG-IFN2a 180 μg/week plus thymalfasin given twice a week by subcutaneous injection (Group 1, 0.8 mg; Group 2, 1.6 mg; Group 3, 3.2 mg). In order to assess effect of thymalfasin on PEG-IFN2a, patients were included only if they were infected with HCV genotype 1 and had serum HCV RNA levels greater than 2 million copies per ml. The effect of therapy was assessed on the reduction in serum HCV RNA after 12 weeks, early virologic response (EVR, proportion which greater than 2 log reduction or negative HCV RNA by the Roche Amplicor assay) and on changes in peripheral CD3 and CD4 lymphocyte counts from baseline (assessed by flow cytometry).
31 patients (26 male) with median age 47 yrs (range 39–58) were enrolled. Four were non-responders to a previous course of standard IFN alone while 27 had previously non responded to standard IFN with ribavirin. All subjects completed 12 weeks of therapy. Six (19%) became negative for HCV RNA on therapy. […] The median reduction in HCV RNA increased with dose with thymosin (Table B).
Patients were randomized into three groups to receive 180 mcg/week of pegylated interferon alpha-2a plus one of three different bi-weekly doses of TA1.

[2] = tested on: peripheral CD3 lymphocyte counts; assay: Same study: change in peripheral CD3 lymphocyte counts from baseline (flow cytometry); type: in vivo, patients
Procedure: as §1

[3] = tested on: peripheral CD4 lymphocyte counts; assay: Same study: change in peripheral CD4 lymphocyte counts from baseline (flow cytometry); type: in vivo, patients
Procedure: as §1

[4] = tested on: HCV genotype-1a; assay: Case report, person with hepatitis C: HCV RNA levels; type: in vivo, patient
Procedure: Then it was decided to start PEG Intron at ⅕ mc/kg/w, ribavirin at 12 mg/kg/day and thymosin-alpha-1 at 3.2 mcg BIW SQ, as a second course of treatment.

[5] = in vivo
Excerpt: Patients will be monitored for significant side-effects or allergic manifestations possibly resulting from treatment. […] Patients will be educated on the symptoms of severe anaphylactic reactions and informed of appropriate countermeasures.

[6] = Group 1: 0.8 mg biw + PEG-IFN2a 180 μg/week
[7] = Group 2: 1.6 mg biw + PEG-IFN2a 180 μg/week
[8] = Group 3: 3.2 mg biw + PEG-IFN2a 180 μg/week

For “thymalfasin: 28 amino acidic polypeptide with a molecular weight of 3100 that has potent immunologic activity; synthetic Tα1 by SciClone (Ac-SDAAVDTSSEITTKDLKEKKEVVEEAEN; UniProt P06454 2-29, looked up)”, the “EVR, early virologic response (greater than 2 log reduction or negative HCV RNA)” value ([1]; Group 1: 0.8 mg biw + PEG-IFN2a 180 μg/week, 12 weeks, listed as T1) was 20%, the “EVR, early virologic response (greater than 2 log reduction or negative HCV RNA)” value ([1]; Group 1: 0.8 mg biw + PEG-IFN2a 180 μg/week, 12 weeks, listed as TA1) was 20% and the “Median Reduction HCV RNA (log)” value ([1]; Group 1: T1 0.8 mg biw sc + PEG-IFN2a 180 μg/week, n=10) was 0.57 log. For the same substance, the “EVR, early virologic response (greater than 2 log reduction or negative HCV RNA)” value ([1]; Group 2: 1.6 mg biw + PEG-IFN2a 180 μg/week, 12 weeks, listed as T1) was 30%, the “EVR, early virologic response (greater than 2 log reduction or negative HCV RNA)” value ([1]; Group 2: 1.6 mg biw + PEG-IFN2a 180 μg/week, 12 weeks, listed as TA1) was 30% and the “Median Reduction HCV RNA (log)” value ([1]; Group 2: T1 1.6 mg biw sc + PEG-IFN2a 180 μg/week, n=10, p < 0.01 vs group 1) was 0.97* log. The “EVR, early virologic response (greater than 2 log reduction or negative HCV RNA)” value ([1]; Group 3: 3.2 mg biw + PEG-IFN2a 180 μg/week, 12 weeks, listed as T1) was 36%, the “EVR, early virologic response (greater than 2 log reduction or negative HCV RNA)” value ([1]; Group 3: 3.2 mg biw + PEG-IFN2a 180 μg/week, 12 weeks, listed as TA1) was 36% and the “Median Reduction HCV RNA (log)” value ([1]; Group 3: T1 3.2 mg biw sc + PEG-IFN2a 180 μg/week, n=11, p < 0.005 vs group 1) was 1.09** log. For the same substance, the “Patients who became negative for HCV RNA on therapy” value ([1]; all 31 patients, all three dose groups, with PEG-IFN2a, 12 weeks) was 19%, the “CD3+ change from baseline” value [2, 6] was 0% and the “CD3+ change from baseline” value [2, 7] was “+8.3%”. For the same substance, the “CD3+ change from baseline” value [2, 8] was “+7.5%”, the “CD4+ change from baseline” value [3, 6] was −0.2% and the “CD4+ change from baseline” value [3, 7] was “+14.8%”. For the same substance, the “CD4+ change from baseline” value [3, 8] was “+8.8%”, the “HCV RNA by TMA” value ([4]; 1 and 3 months after stopping 12 months of PEG Intron + ribavirin + thymosin-alpha-1) was “negative” and the “HCV RNA blood levels by TMA” value ([4]; PEG Intron ⅕ mc/kg/w + ribavirin 12 mg/kg/day + thymosin-alpha-1 3.2 mcg BIW SQ, month 1, 3, 6 and 12) was “less than 5 IU/mL”. The “local or systemic side effects” value [5] was “no local or systemic side effects have been observed”.
